From patent US20230203098A1, “HUMAN TRANSFERRIN RECEPTOR BINDING PEPTIDE” (priority 2020, published 2023)
Read-outs that look alike come from different tables or passages of the source. Where a SMILES comes first, the peptide text is derived from it. Bridges are numbered along the chain shown (N, C = ends). [ ]: non-standard residue; d: D form. NMePhe(3-Cl) = CN[C@@H](Cc1cccc(Cl)c1)C(=O)O; NMeW = CN[C@@H](Cc1c[nH]c2ccccc12)C(=O)O; NMeY = CN[C@@H](Cc1ccc(O)cc1)C(=O)O; PEG4 = NCCOCCOCCOCCOCCC(=O)O; Abu = CC[C@H](N)C(=O)O

Molecular target: transferrin receptor (hTfR) (Homo sapiens, UniProt P02786)
Sequence (P02786 whole entry): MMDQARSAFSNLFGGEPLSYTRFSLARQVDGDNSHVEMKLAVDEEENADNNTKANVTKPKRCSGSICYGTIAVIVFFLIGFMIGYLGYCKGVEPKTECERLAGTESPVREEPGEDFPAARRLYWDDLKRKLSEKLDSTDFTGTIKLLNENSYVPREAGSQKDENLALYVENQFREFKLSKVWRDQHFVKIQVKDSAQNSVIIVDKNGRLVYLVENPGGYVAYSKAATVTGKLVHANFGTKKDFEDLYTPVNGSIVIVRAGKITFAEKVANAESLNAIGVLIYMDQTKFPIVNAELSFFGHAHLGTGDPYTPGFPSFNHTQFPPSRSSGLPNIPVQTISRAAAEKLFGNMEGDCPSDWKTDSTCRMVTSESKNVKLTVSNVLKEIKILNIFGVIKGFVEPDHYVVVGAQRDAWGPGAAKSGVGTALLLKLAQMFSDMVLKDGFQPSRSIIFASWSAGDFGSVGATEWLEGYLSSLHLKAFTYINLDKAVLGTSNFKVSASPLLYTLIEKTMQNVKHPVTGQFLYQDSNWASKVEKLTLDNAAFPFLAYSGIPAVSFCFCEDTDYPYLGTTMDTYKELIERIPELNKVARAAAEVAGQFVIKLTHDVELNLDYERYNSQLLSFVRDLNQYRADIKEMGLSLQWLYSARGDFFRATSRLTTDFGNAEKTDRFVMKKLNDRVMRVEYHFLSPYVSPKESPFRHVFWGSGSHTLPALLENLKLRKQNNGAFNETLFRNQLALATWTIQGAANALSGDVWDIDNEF
Assay: Intermolecular interaction evaluation test between transferrin receptor (hTfR) and peptide by surface plasmon resonance (SPR)
Format: binding
How it was run: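 Receptor was Ni-captured and EDC/NHS-fixed on an NTA chip; running buffer HEPES pH 8.0 with NaCl, Tween 20, BSA and 1.0% DMSO.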

[1] = surface plasmon resonance, hTfR, read-out: KD value for hTfR by SPR (class symbol)
[2] = binding to hTfR by SPR, Table 2 peptides, read-out: KD value (SPR) class
[3] = surface plasmon resonance, peptide vs hTfR, read-out: KD value, hTfR binding by SPR (class symbol)

Row | SMILES | Kd [1] | Kd [2] | also measured
1 | CC[C@H](C)[C@@H]1NC(=O)[C@H](Cc2ccc(OC)cc2)NC(=O)[C@H](Cc2ccc(O)cc2)NC(=O)[C@H](CC(N)=O)NC(=O)[C@H](Cc2c[nH]c3ccccc23)N(C)C(=O)[C@H](C(C)C)NC(=O)[C@H](Cc2cccc(Cl)c2)N(C)C(=O)[C@H](C(C)C)NC(=O)[C@H](C)NC(=O)CSC[C@@H](C(N)=O)NC(=O)[C@H](Cc2ccc(O)cc2)N(C)C(=O)[C@H](Cc2ccccc2)NC(=O)[C@H](CCCNC(=N)N)NC(=O)C(C)(CCCCN)NC(=O)[C@H]([C@@H](C)CC)NC1=O (stereo partly drawn) [compound 379] | 1 to 100 nM | – | –
2 | CC[C@H](C)[C@@H]1NC(=O)[C@H](Cc2ccc(O)cc2)NC(=O)[C@H](Cc2ccc(O)cc2)NC(=O)[C@H](CC(N)=O)NC(=O)[C@H](Cc2c[nH]c3ccccc23)N(C)C(=O)[C@H](C(C)C)NC(=O)[C@H](Cc2cccc(Cl)c2)N(C)C(=O)[C@H](C(C)C)NC(=O)[C@H](C)NC(=O)CSC[C@@H](C(=O)NCCOCCOCCOCCOCCC(N)=O)NC(=O)[C@H](Cc2ccc(O)cc2)N(C)C(=O)[C@H](Cc2ccccc2)NC(=O)[C@@H](CCCNC(=N)N)NC(=O)C(C)(C)NC(=O)[C@H]([C@@H](C)CC)NC1=O [compound 322] | – | – | Kd [3]: 1 to 100 nM
3 | CC[C@H](C)[C@@H]1NC(=O)[C@H](Cc2ccc(OC)cc2)NC(=O)[C@H](Cc2ccc(O)cc2)NC(=O)[C@H](CC(N)=O)NC(=O)[C@H](Cc2c[nH]c3ccccc23)N(C)C(=O)[C@H](C(C)C)NC(=O)[C@H](Cc2cccc(Cl)c2)N(C)C(=O)[C@H](C(C)C)NC(=O)[C@H](C)NC(=O)CSC[C@@H](C(N)=O)NC(=O)[C@H](Cc2ccc(O)cc2)N(C)C(=O)[C@H](Cc2ccccc2)NC(=O)[C@@H](CCCNC(=N)N)NC(=O)C(C)(C)NC(=O)[C@H]([C@@H](C)CC)NC1=O [compound 353] | 1 to 100 nM | – | –
4 | CC[C@H](C)[C@@H]1NC(=O)[C@H](Cc2ccc(OC)cc2)NC(=O)[C@H](Cc2ccc(O)cc2)NC(=O)[C@H](CC(N)=O)NC(=O)[C@H](Cc2c[nH]c3ccccc23)N(C)C(=O)[C@H](C(C)C)NC(=O)[C@H](Cc2cccc(Cl)c2)N(C)C(=O)[C@H](C(C)C)NC(=O)[C@H](C)NC(=O)CSC[C@@H](C(=O)NCC(=O)NCC(=O)NCC(=O)NCC(=O)N[C@@H](CO)C(=O)N[C@@H](CO)C(=O)N[C@@H](CS)C(N)=O)NC(=O)[C@H](Cc2ccc(O)cc2)N(C)C(=O)[C@H](Cc2ccccc2)NC(=O)[C@@H](CCCNC(=N)N)NC(=O)[C@H](CCCNC(=N)N)NC(=O)[C@H](CCCCCN)NC1=O [compound 341] | – | – | Kd: 1 to 100 nM
5 | CC[C@@H]1NC(=O)[C@H]([C@@H](C)CC)NC(=O)[C@H]([C@@H](C)CC)NC(=O)[C@H](Cc2ccc(OC)cc2)NC(=O)[C@H](Cc2ccc(O)cc2)NC(=O)[C@H](CC(N)=O)NC(=O)[C@H](Cc2c[nH]c3ccccc23)N(C)C(=O)[C@H](C(C)C)NC(=O)[C@H](Cc2cccc(Cl)c2)N(C)C(=O)[C@H](C(C)C)NC(=O)[C@H](C)NC(=O)CSC[C@@H](C(=O)NCCOCCOCCOCCOCCC(N)=O)NC(=O)[C@H](Cc2ccc(O)cc2)N(C)C(=O)[C@H](Cc2ccccc2)NC(=O)[C@@H](CCCNC(=N)N)NC1=O [compound 359] ({CH2CO}-AV[NMePhe(3-Cl)]V[NMeW]NYY(Me)II[Abu][dR]F[NMeY]C[PEG4]-NH2; thioether N-15) | 1 to 100 nM | – | –
6 | CC[C@H](C)[C@@H]1NC(=O)[C@H](Cc2ccc(OC)cc2)NC(=O)[C@H](Cc2ccc(O)cc2)NC(=O)[C@H](CC(N)=O)NC(=O)[C@H](Cc2c[nH]c3ccccc23)N(C)C(=O)[C@H](C(C)C)NC(=O)[C@H](Cc2cccc(Cl)c2)N(C)C(=O)[C@H](CCC(=O)O)NC(=O)[C@H](C)NC(=O)CSC[C@@H](C(N)=O)NC(=O)[C@H](CCCNC(=N)N)NC(=O)[C@H](Cc2ccccc2)NC(=O)[C@H](CCCNC(=N)N)NC(=O)[C@H](CC(=O)O)NC(=O)[C@H]([C@@H](C)CC)NC1=O [compound 227] ({CH2CO}-AE[NMePhe(3-Cl)]V[NMeW]NYY(Me)IIDRFRC-NH2; thioether N-15) | – | – | Kd (SPR, peptides, linker-added peptides and FITC conjugates, Patent ID 203-230, read-out: KD): 1 to 100 nM
7 | CC[C@H](C)[C@@H]1NC(=O)[C@H](Cc2ccc(OC)cc2)NC(=O)[C@H](Cc2ccc(O)cc2)NC(=O)[C@H](CC(N)=O)NC(=O)[C@H](Cc2c[nH]c3ccccc23)N(C)C(=O)[C@H](C(C)C)NC(=O)[C@H](Cc2cccc(Cl)c2)N(C)C(=O)[C@H](C(C)C)NC(=O)[C@H](C)NC(=O)CSC[C@@H](C(N)=O)NC(=O)[C@H](Cc2ccc(O)cc2)N(C)C(=O)[C@H](Cc2ccccc2)NC(=O)[C@@H](CCCNC(=N)N)NC(=O)[C@H](CCC(=O)NCCOCCOCCOCCOCCOCCOCCOCCOC)NC(=O)[C@H]([C@@H](C)CC)NC1=O [compound 363] | 1 to 100 nM | – | –
8 | CC[C@H](C)[C@@H]1NC(=O)[C@H](Cc2ccc(OC)cc2)NC(=O)[C@H](Cc2ccc(O)cc2)NC(=O)[C@H](CC(N)=O)NC(=O)[C@H](Cc2c[nH]c3ccccc23)N(C)C(=O)[C@H](C(C)C)NC(=O)[C@H](Cc2cccc(Cl)c2)N(C)C(=O)[C@H](C(C)C)NC(=O)[C@H](C)NC(=O)CSC[C@@H](C(=O)NCC(=O)N[C@@H](CCCCN=[N+]=[N-])C(N)=O)NC(=O)[C@H](Cc2ccc(O)cc2)N(C)C(=O)[C@H](Cc2ccccc2)NC(=O)[C@@H](CCCNC(=N)N)NC(=O)[C@H](CCCNC(=N)N)NC(=O)[C@H](CCC(=O)O)NC1=O [compound 340] | – | – | Kd [3]: 1 to 100 nM

Further lines, with some results ahead:

Row | Kd [1] | Kd [2] | SMILES | also measured
9 | – | 100 to 1000 nM | CC[C@H](C)[C@@H]1NC(=O)[C@H](Cc2ccc(O)cc2)NC(=O)[C@H](Cc2ccc(O)cc2)NC(=O)[C@H](CC(N)=O)NC(=O)[C@H](Cc2c[nH]c3ccccc23)NC(=O)[C@H](C(C)C)NC(=O)[C@H](Cc2ccccc2)NC(=O)[C@H](C(C)C)NC(=O)[C@H](C)NC(=O)CSC[C@@H](C(=O)NCC(=O)NCC(=O)N[C@@H](CO)C(=O)NCC(=O)N[C@@H](CO)C(=O)NCC(=O)N[C@@H](CCCCNC(=O)C2CCC(CN3C(=O)C=CC3=O)CC2)C(N)=O)NC(=O)[C@H](Cc2ccc(O)cc2)NC(=O)[C@H](Cc2ccccc2)NC(=O)[C@H](CCCNC(=N)N)NC(=O)[C@H](CCCNC(=N)N)NC(=O)[C@H]([C@@H](C)CC)NC1=O (stereo partly drawn) [compound 262] | –
10 | – | 1 to 100 nM | CC[C@H](C)[C@@H]1NC(=O)[C@H](Cc2ccc(O)cc2)NC(=O)[C@H](Cc2ccc(O)cc2)NC(=O)[C@H](CC(N)=O)NC(=O)[C@H](Cc2c[nH]c3ccccc23)NC(=O)[C@H](C(C)C)NC(=O)[C@H](Cc2ccccc2)NC(=O)[C@H](C(C)C)NC(=O)[C@H](C)NC(=O)CSC[C@@H](C(N)=O)NC(=O)[C@H](Cc2ccc(O)cc2)N(C)C(=O)[C@H](Cc2ccc(O)cc2)NC(=O)[C@H](C)NC(=O)[C@H](CCCNC(=N)N)NC(=O)[C@H]([C@@H](C)CC)NC1=O [compound 256] | –
11 | – | < 1 nM | CC[C@H](C)[C@@H]1NC(=O)[C@H](Cc2ccc(O)cc2)NC(=O)[C@H](Cc2ccc(O)cc2)NC(=O)[C@H](CC(N)=O)NC(=O)[C@H](Cc2c[nH]c3ccccc23)N(C)C(=O)[C@H](C(C)C)NC(=O)[C@H](Cc2ccccc2)NC(=O)[C@H](C(C)C)NC(=O)[C@H](C)NC(=O)CSC[C@@H](C(N)=O)NC(=O)[C@H](Cc2ccc(O)cc2)N(C)C(=O)[C@H](Cc2ccc(O)cc2)NC(=O)[C@H](CCCNC(=N)N)NC(=O)[C@H](CCCNC(=N)N)NC(=O)[C@H]([C@@H](C)CC)NC1=O [compound 263] | –
12 | – | < 1 nM | CC[C@H](C)[C@@H]1NC(=O)[C@H](Cc2ccc(O)cc2)NC(=O)[C@H](Cc2ccc(O)cc2)NC(=O)[C@H](CC(N)=O)NC(=O)[C@H](Cc2c[nH]c3ccccc23)N(C)C(=O)[C@H](C(C)C)NC(=O)[C@H](Cc2ccccc2)NC(=O)[C@H](C(C)C)NC(=O)[C@H](C)NC(=O)CSC[C@@H](C(=O)NCCOCCOCCOCCOCCC(N)=O)NC(=O)[C@H](Cc2ccc(O)cc2)N(C)C(=O)[C@H](Cc2ccc(O)cc2)NC(=O)[C@H](CCCNC(=N)N)NC(=O)[C@H](CCCNC(=N)N)NC(=O)[C@H]([C@@H](C)CC)NC1=O [compound 264] | –
